Measured values taken from ChEMBL document CHEMBL5442219.

Tests used:
Settings in all cases: Compound concentration 10 µM
[1] = molecular target: Mu-type opioid receptor (Homo sapiens) (UniProt P35372)
Description: PDSP Primary Binding target: OPRM1 - Compounds are tested at 10 uM concentration, plate are incubated at room temperature in the dark for 90 minutes. Reaction are stopped by vacuum filtration onto 0.3% polyethyleneimine soaked filter mats using Filtermate harvester. Scintilation cocktail is then melted onto microwave-dried filters on a hot plate and the radio activity is counted in Microbia counter.

[2] = molecular target: T1, 5-hydroxytryptamine receptor 2C (Homo sapiens) (UniProt P28335)
T1 sequence (whole entry): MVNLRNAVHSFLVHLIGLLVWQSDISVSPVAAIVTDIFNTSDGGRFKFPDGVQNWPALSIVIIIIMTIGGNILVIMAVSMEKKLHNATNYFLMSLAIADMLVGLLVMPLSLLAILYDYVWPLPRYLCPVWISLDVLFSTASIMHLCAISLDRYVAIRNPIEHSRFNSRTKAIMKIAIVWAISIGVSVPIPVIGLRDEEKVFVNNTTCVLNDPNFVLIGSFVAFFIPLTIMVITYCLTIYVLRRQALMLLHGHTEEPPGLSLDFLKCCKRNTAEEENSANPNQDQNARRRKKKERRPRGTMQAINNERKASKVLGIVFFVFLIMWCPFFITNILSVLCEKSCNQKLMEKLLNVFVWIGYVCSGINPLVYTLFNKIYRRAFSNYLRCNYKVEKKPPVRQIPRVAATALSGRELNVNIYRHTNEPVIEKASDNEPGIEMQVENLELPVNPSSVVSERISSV
Description: PDSP Primary Binding target: HTR2C - Compounds are tested at 10 uM concentration, plate are incubated at room temperature in the dark for 90 minutes. Reaction are stopped by vacuum filtration onto 0.3% polyethyleneimine soaked filter mats using Filtermate harvester. Scintilation cocktail is then melted onto microwave-dried filters on a hot plate and the radio activity is counted in Microbia counter.

[3] = molecular target: T2, D(4) dopamine receptor (Homo sapiens) (UniProt P21917)
T2 sequence (whole entry): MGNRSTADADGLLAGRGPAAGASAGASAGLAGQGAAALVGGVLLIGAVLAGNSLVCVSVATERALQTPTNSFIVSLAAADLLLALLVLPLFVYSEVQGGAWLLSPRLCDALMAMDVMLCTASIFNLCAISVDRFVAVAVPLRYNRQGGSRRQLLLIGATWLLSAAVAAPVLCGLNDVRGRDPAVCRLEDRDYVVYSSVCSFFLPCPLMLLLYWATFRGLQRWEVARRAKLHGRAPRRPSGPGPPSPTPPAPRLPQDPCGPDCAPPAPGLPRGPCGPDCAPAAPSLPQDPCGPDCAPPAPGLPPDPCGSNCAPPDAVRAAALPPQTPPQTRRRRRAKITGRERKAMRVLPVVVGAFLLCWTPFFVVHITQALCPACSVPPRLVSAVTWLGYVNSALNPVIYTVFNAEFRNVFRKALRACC
Description: PDSP Primary Binding target: DRD4 - Compounds are tested at 10 uM concentration, plate are incubated at room temperature in the dark for 90 minutes. Reaction are stopped by vacuum filtration onto 0.3% polyethyleneimine soaked filter mats using Filtermate harvester. Scintilation cocktail is then melted onto microwave-dried filters on a hot plate and the radio activity is counted in Microbia counter.

[4] = molecular target: T3, Alpha-1A adrenergic receptor (Homo sapiens) (UniProt P35348)
T3 sequence (whole entry): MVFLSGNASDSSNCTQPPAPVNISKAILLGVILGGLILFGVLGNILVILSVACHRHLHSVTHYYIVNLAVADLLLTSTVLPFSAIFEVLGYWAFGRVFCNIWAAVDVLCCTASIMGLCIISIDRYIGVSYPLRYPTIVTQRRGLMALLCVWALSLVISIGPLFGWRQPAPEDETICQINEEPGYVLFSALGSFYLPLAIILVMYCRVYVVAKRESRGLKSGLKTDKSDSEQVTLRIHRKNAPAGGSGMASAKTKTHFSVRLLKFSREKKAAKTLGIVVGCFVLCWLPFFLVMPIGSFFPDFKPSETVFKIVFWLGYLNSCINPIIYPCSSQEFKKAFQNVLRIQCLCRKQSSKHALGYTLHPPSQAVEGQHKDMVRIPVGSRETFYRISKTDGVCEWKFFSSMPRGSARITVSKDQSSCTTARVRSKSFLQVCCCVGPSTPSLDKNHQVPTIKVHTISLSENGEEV
Description: PDSP Primary Binding target: ADRA1A - Compounds are tested at 10 uM concentration, plate are incubated at room temperature in the dark for 90 minutes. Reaction are stopped by vacuum filtration onto 0.3% polyethyleneimine soaked filter mats using Filtermate harvester. Scintilation cocktail is then melted onto microwave-dried filters on a hot plate and the radio activity is counted in Microbia counter.

[5] = molecular target: Kappa-type opioid receptor (Homo sapiens) (UniProt P41145)
Kappa-type opioid receptor (Homo sapiens), sequence (P41145 whole entry): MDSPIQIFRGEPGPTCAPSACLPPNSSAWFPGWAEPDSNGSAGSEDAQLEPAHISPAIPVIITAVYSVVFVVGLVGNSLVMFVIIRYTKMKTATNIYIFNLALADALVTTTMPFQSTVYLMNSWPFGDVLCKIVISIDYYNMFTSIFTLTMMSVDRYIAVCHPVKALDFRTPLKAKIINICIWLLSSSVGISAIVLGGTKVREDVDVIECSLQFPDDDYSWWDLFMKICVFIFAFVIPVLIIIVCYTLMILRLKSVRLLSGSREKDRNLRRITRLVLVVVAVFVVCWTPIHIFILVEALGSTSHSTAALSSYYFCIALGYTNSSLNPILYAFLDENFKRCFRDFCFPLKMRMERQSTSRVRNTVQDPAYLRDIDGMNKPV
Description: PDSP Primary Binding target: OPRK1 - Compounds are tested at 10 uM concentration, plate are incubated at room temperature in the dark for 90 minutes. Reaction are stopped by vacuum filtration onto 0.3% polyethyleneimine soaked filter mats using Filtermate harvester. Scintilation cocktail is then melted onto microwave-dried filters on a hot plate and the radio activity is counted in Microbia counter.

[6] = molecular target: Histamine H1 receptor (Homo sapiens) (UniProt P35367)
Histamine H1 receptor (Homo sapiens), sequence (P35367 whole entry): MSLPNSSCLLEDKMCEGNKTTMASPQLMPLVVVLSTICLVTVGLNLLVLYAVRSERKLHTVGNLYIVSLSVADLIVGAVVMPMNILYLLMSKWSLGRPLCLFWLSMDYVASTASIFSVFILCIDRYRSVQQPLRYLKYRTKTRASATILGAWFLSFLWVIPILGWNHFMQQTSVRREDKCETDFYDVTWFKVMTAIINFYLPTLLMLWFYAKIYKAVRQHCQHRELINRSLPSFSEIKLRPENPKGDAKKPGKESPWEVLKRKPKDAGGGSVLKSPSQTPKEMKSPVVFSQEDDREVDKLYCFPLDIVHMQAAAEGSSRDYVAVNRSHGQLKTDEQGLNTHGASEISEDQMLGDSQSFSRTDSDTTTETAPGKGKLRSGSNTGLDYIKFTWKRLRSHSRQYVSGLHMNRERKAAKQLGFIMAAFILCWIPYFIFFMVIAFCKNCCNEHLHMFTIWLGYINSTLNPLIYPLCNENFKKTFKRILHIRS
Description: PDSP Primary Binding target: HRH1 - Compounds are tested at 10 uM concentration, plate are incubated at room temperature in the dark for 90 minutes. Reaction are stopped by vacuum filtration onto 0.3% polyethyleneimine soaked filter mats using Filtermate harvester. Scintilation cocktail is then melted onto microwave-dried filters on a hot plate and the radio activity is counted in Microbia counter.

[7] = molecular target: T4, Alpha-2B adrenergic receptor (Homo sapiens) (UniProt P18089)
T4 sequence (whole entry): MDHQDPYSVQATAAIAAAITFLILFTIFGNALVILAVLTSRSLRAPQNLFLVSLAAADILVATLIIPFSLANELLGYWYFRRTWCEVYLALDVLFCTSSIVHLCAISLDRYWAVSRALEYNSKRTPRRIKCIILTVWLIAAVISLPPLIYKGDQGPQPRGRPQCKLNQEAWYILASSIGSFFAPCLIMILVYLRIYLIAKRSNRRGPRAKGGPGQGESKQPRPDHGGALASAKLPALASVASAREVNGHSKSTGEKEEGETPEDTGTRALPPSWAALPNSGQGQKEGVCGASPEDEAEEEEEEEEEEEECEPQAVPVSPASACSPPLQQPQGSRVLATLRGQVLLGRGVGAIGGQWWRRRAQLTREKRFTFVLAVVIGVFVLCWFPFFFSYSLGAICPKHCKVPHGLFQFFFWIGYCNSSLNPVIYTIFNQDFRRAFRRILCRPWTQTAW
Description: PDSP Primary Binding target: ADRA2B - Compounds are tested at 10 uM concentration, plate are incubated at room temperature in the dark for 90 minutes. Reaction are stopped by vacuum filtration onto 0.3% polyethyleneimine soaked filter mats using Filtermate harvester. Scintilation cocktail is then melted onto microwave-dried filters on a hot plate and the radio activity is counted in Microbia counter.

[8] = molecular target: T5, Muscarinic acetylcholine receptor M4 (Homo sapiens) (UniProt P08173)
T5 sequence (whole entry): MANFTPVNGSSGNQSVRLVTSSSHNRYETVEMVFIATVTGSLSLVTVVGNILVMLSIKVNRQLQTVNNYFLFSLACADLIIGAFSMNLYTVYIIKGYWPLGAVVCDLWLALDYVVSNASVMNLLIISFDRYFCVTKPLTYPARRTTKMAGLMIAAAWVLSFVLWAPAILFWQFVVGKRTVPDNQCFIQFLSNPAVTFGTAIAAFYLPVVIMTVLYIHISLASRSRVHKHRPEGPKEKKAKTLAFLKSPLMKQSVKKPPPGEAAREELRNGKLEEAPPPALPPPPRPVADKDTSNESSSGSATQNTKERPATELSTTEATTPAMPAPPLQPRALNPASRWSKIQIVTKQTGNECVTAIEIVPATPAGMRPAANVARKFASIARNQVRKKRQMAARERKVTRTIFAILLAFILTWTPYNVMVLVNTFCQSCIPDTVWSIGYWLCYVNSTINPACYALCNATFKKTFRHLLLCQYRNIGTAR
Description: PDSP Primary Binding target: CHRM4 - Compounds are tested at 10 uM concentration, plate are incubated at room temperature in the dark for 90 minutes. Reaction are stopped by vacuum filtration onto 0.3% polyethyleneimine soaked filter mats using Filtermate harvester. Scintilation cocktail is then melted onto microwave-dried filters on a hot plate and the radio activity is counted in Microbia counter.

Mu-type opioid receptor (Homo sapiens), sequence (P35372 whole entry): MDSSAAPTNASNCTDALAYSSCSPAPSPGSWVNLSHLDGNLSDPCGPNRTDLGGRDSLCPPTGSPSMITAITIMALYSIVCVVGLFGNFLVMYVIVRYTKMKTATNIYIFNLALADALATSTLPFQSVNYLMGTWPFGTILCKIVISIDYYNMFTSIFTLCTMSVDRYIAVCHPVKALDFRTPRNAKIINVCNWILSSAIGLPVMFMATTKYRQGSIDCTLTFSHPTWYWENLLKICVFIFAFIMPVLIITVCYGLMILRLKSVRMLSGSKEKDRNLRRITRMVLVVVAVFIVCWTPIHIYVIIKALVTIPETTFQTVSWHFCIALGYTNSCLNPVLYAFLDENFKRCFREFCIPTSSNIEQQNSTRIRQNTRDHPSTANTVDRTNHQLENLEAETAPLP

SMILES | inhibition [1] | inhibition [2] | inhibition [3] | inhibition [4] | inhibition [5] | inhibition [6] | inhibition [7] | inhibition [8]
Brc1c(NC2=NCCN2)ccc2nccnc12 | 0.59% | 6.61% | 16.9% | 34% | – | – | – | –
CNC[C@H](O)c1ccc(O)c(O)c1 | -2.25% | – | 20.1% | 6.21% | – | – | – | –
CC(C)[C@H](CO)Nc1nc(Nc2cccc(Cl)c2)c2ncn(C(C)C)c2n1 | 9.06% | 51% | 62.7% | 1.19% | 34.6% | -4.77% | 28.1% | –
Cc1cc(C)c(N)c(C#Cc2cccc(F)c2)n1 | 2.84% | 2.41% | -9.97% | 10.2% | 18.4% | 9.77% | 12.9% | –
CCCCCCCCCCCCC/C=C/[C@@H](O)[C@@H](N)COP(=O)(O)O | 30.4% | -2.94% | – | – | 6.18% | 14.3% | -1.62% | -2.5%
CN1CCC(=C2c3ccccc3CC(=O)c3sccc32)CC1 | 15.9% | 93.2% | 25.6% | 9.71% | 20.8% | – | – | 64.6%
CCc1nn2c(C)cc(C)nc2c1Cc1ccc(-c2nnc(C3CCNCC3)o2)cc1 | 50.7% | 10.1% | -4.88% | -9.75% | 4.27% | 9.84% | 27.4% | -6.61%
CC(C)NCC(O)COc1cccc2[nH]ccc12 (centres undefined) | 16.8% | 7.77% | 69.4% | 32% | 46.9% | – | – | 4.2%
CCOC(=O)c1cc(C#N)c(N2CCC(C(=O)NS(=O)(=O)Cc3ccccc3)CC2)nc1C | 4.87% | 6.09% | 7.97% | 33.7% | 3.74% | -6.11% | -7.37% | 18.3%
CCCNS(=O)(=O)Nc1ncnc(OCCOc2ncc(Br)cn2)c1-c1ccc(Br)cc1 | 30.6% | 4.95% | – | – | 1.8% | 11.5% | – | 6.06%
O=c1ccn([C@@H]2O[C@H](COP(=O)(O)OP(=O)(O)OP(=O)(O)O)[C@@H](O)[C@H]2O)c(=O)[nH]1 | 27.4% | 9.66% | 53.3% | 2.2% | 47.6% | -0.29% | 0.09% | -4.92%
N#Cc1ccc(NC(=O)Nc2ccccc2Br)c2nn[nH]c12 | 27.1% | 26.9% | 13.3% | – | 25.6% | 0.77% | -2.75% | 33.1%
N[C@H](C(=O)O)c1ccc(C(=O)O)c(C(=O)O)c1 | 29.8% | 13.4% | -8.24% | – | 4.93% | 11.7% | -4.38% | –
CC(C)(C(=O)O)c1ccc(C(O)CCCN2CCC(C(O)(c3ccccc3)c3ccccc3)CC2)cc1 (centres undefined) | – | -8.36% | 19.6% | – | – | – | – | -3.2%
CCCn1c(=O)c2nc(C34CC5CC(CC3C5)C4)[nH]c2n(CCC)c1=O | 9.1% | -0.12% | 1.06% | – | 4.62% | 8.71% | 6.22% | –
COC(=O)[C@H]1[C@H]2C[C@H]3c4[nH]c5ccccc5c4CCN3C[C@H]2CC[C@@H]1O | 28.7% | 2.54% | 40.2% | 66.2% | 19% | – | – | -4.59%
COc1ccc2[nH]cc(CCNC(C)=O)c2c1 | – | – | 1.97% | -4.46% | – | – | – | –
COc1cc2nc(N3CCN(C(=O)c4ccco4)CC3)nc(N)c2cc1OC | 50% | 3.9% | 27.4% | 98.7% | 11% | – | – | 2.17%
NCCc1c[nH]c2ccc(C(N)=O)cc12 | 28.8% | 71.4% | 8.02% | -9.81% | 2.24% | -4.09% | 24.8% | -6.09%
Cc1c(F)cccc1NC(=O)Nc1ccc(Cl)c(S(=O)(=O)[C@H]2CCCNC2)c1O | -3.61% | -7.64% | 6.5% | 19.2% | -8.19% | 25.6% | 3.18% | -3.99%
Clc1cccc(Cl)c1NC1=NCCN1 | 3.84% | 55.7% | -2.87% | 69% | 11.2% | – | – | -8.53%
Cc1ccccc1N1CCN(S(=O)(=O)C[C@]23CC[C@H](C[C@@H]2NC(=O)[C@@H](N)CCS(C)(=O)=O)C3(C)C)CC1 | 15.9% | -4.87% | -6.27% | 19.4% | 98.5% | 0.34% | 11.2% | –
Cc1nc(-c2ccc(C(F)(F)F)cc2)sc1COc1ccc([C@H](CC(=O)O)c2ccon2)cc1 | -7.02% | -6.07% | – | – | 6.61% | – | -6.48% | 4.4%
CN[C@@H]1CCc2[nH]c3ccc(C(N)=O)cc3c2C1 | 54.7% | 18.2% | 64.7% | 11.8% | 5.76% | 0.33% | 13.7% | -3.71%
CN1C[C@H](C(=O)N[C@]2(C)O[C@@]3(O)[C@@H]4CCCN4C(=O)[C@H](Cc4ccccc4)N3C2=O)C[C@@H]2c3cccc4[nH]cc(c34)C[C@H]21 | 58.1% | 103% | 100% | 99.4% | 15.5% | – | – | -5.91%
CCc1nn(CCCN2CCN(c3cccc(Cl)c3)CC2)c(=O)n1CCOc1ccccc1 | 32.2% | 102% | 89.3% | 96% | 49.2% | 94.5% | 103% | –
